The text below walks through data of US5635593A (priority 1995, dated 1997).

Peptide text beside a SMILES is read from it.

Experiment [1] deals with blood pressure responses to BK. In kind it is in vivo. The settings on record: anaesthetized rat, dose response curve n=10.
Experiment [2] has as its target T1, BK2 receptor (Cavia porcellus, UniProt O70526).
T1 construct: tested for activity on guinea pig ileum in vitro on the standard tissue bath/strain gauge system; from tissue; host or cells: guinea pig ileum
T1 sequence (O70526 1-372): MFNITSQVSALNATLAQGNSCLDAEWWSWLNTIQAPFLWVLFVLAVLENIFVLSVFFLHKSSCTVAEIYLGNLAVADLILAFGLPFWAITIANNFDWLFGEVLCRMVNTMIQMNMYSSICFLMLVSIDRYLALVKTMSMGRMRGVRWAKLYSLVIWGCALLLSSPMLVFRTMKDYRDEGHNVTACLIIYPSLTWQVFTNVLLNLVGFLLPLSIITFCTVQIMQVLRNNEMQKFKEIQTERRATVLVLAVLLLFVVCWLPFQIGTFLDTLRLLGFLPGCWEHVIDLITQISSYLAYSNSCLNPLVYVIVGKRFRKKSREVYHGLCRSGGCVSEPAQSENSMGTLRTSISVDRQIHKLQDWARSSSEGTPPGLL
Description: guinea-pig ileum (GPI) in vitro, antagonism of BK. As for the experimental part:
(§1) Thus, in vitro studies were performed on standard assay systems, namely, guinea-pig ileum (GPI), rat uterus (RU) and rabbit jugular vein (RJV). […] The potency of each compound was assessed as a pA2 value according to the method of Arunlakshana & Schild, Br. J. Pharmacol. Chemother., 14:48-58 (1959). The pA2 can be defined as the negative logarithm of the molar concentration of the antagonist in the presence of which the potency of the agonist is reduced two-fold, i.e., twice the amount of agonist is required to produce a given response in the presence of, than in the absence of, the antagonist. A high potency of antagonism is indicated by a high pA2 value. i.e., a low concentration of antagonist is effective.
The percentage recovery (% Rec) was also determined for compounds with respect to each assay.
The Cys-modified monomers and the resultant dimers were tested for activity on guinea pig ileum in vitro on the standard tissue bath/strain gauge system as before.

In another experiment the target is T2, BK2 -receptor (Rattus norvegicus, UniProt P25023).
T2 construct: guinea-pig ileum (GPI), rat uterus (RU) and rabbit jugular vein (RJV); from tissue; host or cells: rat uterus
T2 sequence (P25023 1-396): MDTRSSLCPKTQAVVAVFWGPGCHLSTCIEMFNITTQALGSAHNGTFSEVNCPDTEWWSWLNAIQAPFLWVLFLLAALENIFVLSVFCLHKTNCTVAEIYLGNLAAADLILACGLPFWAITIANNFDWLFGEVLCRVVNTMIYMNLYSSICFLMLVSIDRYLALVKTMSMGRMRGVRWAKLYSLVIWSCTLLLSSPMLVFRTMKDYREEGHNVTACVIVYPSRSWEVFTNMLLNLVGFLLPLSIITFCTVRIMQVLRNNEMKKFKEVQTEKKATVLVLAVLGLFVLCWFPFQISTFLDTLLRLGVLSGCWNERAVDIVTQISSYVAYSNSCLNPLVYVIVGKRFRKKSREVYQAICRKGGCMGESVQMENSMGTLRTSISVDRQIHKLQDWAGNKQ
The experiment is described as follows: rat uterus (RU) in vitro, antagonism of BK. Conditions: for % REC rat uterus: percentage recovery after washing.

The target of experiment [3] is T3, BK2 receptor (Oryctolagus cuniculus, UniProt Q28642).
T3 construct: from tissue; host or cells: whole animal (rabbit, LPS-pretreated), blood pressure response
T3 sequence (Q28642 1-367): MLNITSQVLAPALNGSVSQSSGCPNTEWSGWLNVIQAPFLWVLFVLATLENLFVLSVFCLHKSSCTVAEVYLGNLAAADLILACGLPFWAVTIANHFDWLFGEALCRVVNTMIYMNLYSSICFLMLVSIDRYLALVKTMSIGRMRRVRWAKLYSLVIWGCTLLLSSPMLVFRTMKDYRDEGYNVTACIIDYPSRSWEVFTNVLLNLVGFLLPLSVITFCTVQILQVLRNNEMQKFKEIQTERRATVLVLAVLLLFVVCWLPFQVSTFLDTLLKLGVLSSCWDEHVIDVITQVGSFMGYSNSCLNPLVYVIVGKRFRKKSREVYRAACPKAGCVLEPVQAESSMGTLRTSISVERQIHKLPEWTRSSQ
The experiment is described as follows: rabbit jugular vein (RJV) in vitro, antagonism of BK. Conditions: percentage recovery after washing. As to the method: as §1
The percentage recovery (% Rec) was also determined for compounds with respect to each assay. Percentage recovery is a measure of the duration of action, the lower the percentage recovery value, the greater the duration of action of the compound.

Experiment [4] has as its target T3, BK2 receptor. The experiment is described as follows: blood pressure response to BK2 agonist in LPS-pretreated rabbits. The settings on record: rabbits given LPS (10 μg) 20 hours before. On the set-up: key to observed antagonist activity BK2, 1 / observed antagonist activity BK2, 3 / observed antagonist activity BK2, 10: +: complete blockade of the blood pressure response to the appropriate agonist; ±: partial blockade; -: no observable effect at the dose indicated. In kind it is in vivo, rabbit. The text has this:
(§2) That heterodimeric constructs block the activities attributable to two different receptor populations simultaneously when administered to an intact animal has been known using a standard assay of BK2 and BK1 receptor activity (see, deBlois, Bouthillier, and Marceau, Brit. J. Pharm., 103, 1057-1066, 1991). In normal rabbits, no changes in systemic arterial blood pressure can be detected in response to challenges with BK1 receptor agonists. There is, however, a predictable and reproducible response to BK2 agonists constituatively present. After stimulation with LPS BK1 receptor activity will develop over time such that profound responses to doses of BK1 agonists that were previously inconsequential in nature are observed after a 3-4 hour period. Responses to BK2 agonists are unchanged in these animals. At this point, one can test directly the ability to block both BK1 and BK2 mediated reductions in systemic blood pressure simultaneously with a heterodimeric antagonist.
(§3) FIGS. 8a, b and c comprise actual blood pressure traces from a series of experiments designed to illustrate the ability of a representative heterodimer (CP-0364) to block both BK1 - and BK2 - mediated hypotensive responses simultaneously.
(§4) The expected antagonist activity is based on the data summarized in Tables K and L. The in vivo experimental data reported are qualitative measurements of antagonist activity at three different doses (1, 3 and 10 μg kg^-1 min^-1) in rabbits given a sub-lethal dose of LPS (10 μg), 20 hours before initiation of the experiment.

Experiment [5] deals with T4, BK1 receptor (Oryctolagus cuniculus, UniProt P48748).
T4 sequence (P48748 1-352): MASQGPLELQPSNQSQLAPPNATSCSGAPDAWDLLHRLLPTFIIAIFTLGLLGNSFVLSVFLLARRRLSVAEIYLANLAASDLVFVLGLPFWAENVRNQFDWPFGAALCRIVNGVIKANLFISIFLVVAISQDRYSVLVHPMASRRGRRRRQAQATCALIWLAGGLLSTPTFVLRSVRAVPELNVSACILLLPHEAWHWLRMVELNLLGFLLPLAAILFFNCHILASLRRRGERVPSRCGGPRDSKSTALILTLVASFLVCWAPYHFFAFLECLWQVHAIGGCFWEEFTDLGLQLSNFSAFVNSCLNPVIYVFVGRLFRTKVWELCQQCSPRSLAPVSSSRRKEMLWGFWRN
The experiment is described as follows: rabbit aorta in vitro, reversal of des-Arg^9 -BK contraction. More on the design: on rabbit aorta (BK1 -receptor) in vitro; from tissue; host or cells: rabbit aorta. The settings on record: negative log of molar concentration causing 50% reversal of des-Arg^9 -BK (10^-7 M) contraction. As to the method:
Each antagonist was then added, in a cumulative fashion, on top of the contraction and the negative log of the molar concentration of the antagonist causing a 50% reversal (IC50) of the […] measured.

For experiment [6], the target named is T4, BK1 receptor. Description: blood pressure response to BK1 agonist in LPS-pretreated rabbits. In kind it is in vivo, rabbit. More on the design: from tissue; host or cells: whole animal (rabbit, LPS-pretreated), blood pressure response; key to observed antagonist activity BK1, 1 / observed antagonist activity BK1, 3 / observed antagonist activity BK1, 10: +: complete blockade of the blood pressure response to the appropriate agonist; ±: partial blockade; -: no observable effect at the dose indicated. The settings on record: rabbits given LPS (10 μg) 20 hours before.
From the text: as §2, §3, §4

`NC(N)=NCCC[C@H](NC(=O)[C@H](Cc1ccccc1)NC(=O)[C@@H]1CCCN1C(=O)[C@H](CO)NC(=O)[C@H](Cc1ccccc1)NC(=O)CNC(=O)[C@@H]1CCCN1C(=O)[C@@H]1CCCN1C(=O)[C@@H](N)CCCN=C(N)N)C(=O)O` [BK, Arg^1 -Pro^2 -Pro^3 -Gly^4 -Phe^5 -Ser^6 -Pro^7 -Phe^8 -Arg^9] (H-RPPGFSPFR-OH): the “ED50 of BK, blood pressure” value in experiment [1] came out at 0.4 nmol.

In the case of `CC(C)C[C@H](NC(=O)[C@@H](Cc1ccccc1)NC(=O)[C@H](CSC1CC(=O)N(CCCCCCN2C(=O)CC(SC[C@H](NC(=O)[C@H](Cc3ccccc3)NC(=O)CNC(=O)[C@@H]3C[C@@H](O)CN3C(=O)[C@@H]3CCCN3C(=O)[C@H](CCCNC(=N)N)NC(=O)[C@H](N)CCCNC(=N)N)C(=O)N[C@H](Cc3ccccc3)C(=O)N[C@@H](CC(C)C)C(=O)N[C@@H](CCCNC(=N)N)C(=O)O)C2=O)C1=O)NC(=O)[C@H](Cc1ccccc1)NC(=O)CNC(=O)[C@@H]1C[C@@H](O)CN1C(=O)[C@@H]1CCCN1C(=O)[C@H](CCCNC(=N)N)NC(=O)[C@H](N)CCCNC(=N)N)C(=O)N[C@@H](CCCNC(=N)N)C(=O)O` (stereo partly drawn) [CP-0127] (HELM PEPTIDE1{[dR].R.P.[Hyp].G.F.C.[dF].L.R}|PEPTIDE2{[dR].R.P.[Hyp].G.F.C.[dF].L.R}|CHEM1{[O=C1CC([*:1])C(=O)N1CCCCCCN1C(=O)CC([*:2])C1=O]}$PEPTIDE1,CHEM1,7:R3-1:R1|PEPTIDE2,CHEM1,7:R3-1:R2$$$V2.0), the “pA2 guinea pig ileum” value at BK2 receptor [2] (against BK) is listed as 7.7. The “% REC GPI” value at BK2 receptor [2] (percentage recovery after washing) came to 100%. Also, the “% REC rat uterus” value on BK2 -receptor came to 50%. For the same molecule, the “% REC RJV” value on BK2 receptor [3] amounted to 10%.

For `CC(C)C[C@H](NC(=O)[C@@H](Cc1ccccc1)NC(=O)[C@H](CO)NC(=O)[C@H](Cc1ccccc1)NC(=O)CNC(=O)[C@@H]1C[C@@H](O)CN1C(=O)[C@@H]1CCCN1C(=O)[C@H](CSC1CC(=O)N(CCCCCCN2C(=O)CC(SC[C@H](NC(=O)[C@H](Cc3ccccc3)NC(=O)CNC(=O)[C@@H]3C[C@@H](O)CN3C(=O)[C@@H]3CCCN3C(=O)[C@H](CCCNC(=N)N)NC(=O)[C@H](N)CCCNC(=N)N)C(=O)N[C@H](Cc3ccccc3)C(=O)N[C@@H](CC(C)C)C(=O)N[C@@H](CCCNC(=N)N)C(=O)O)C2=O)C1=O)NC(=O)[C@H](N)CCCNC(=N)N)C(=O)O` (stereo partly drawn) [CP-0386] (HELM PEPTIDE1{[dR].R.P.[Hyp].G.F.C.[dF].L.R}|PEPTIDE2{[dR].C.P.[Hyp].G.F.S.[dF].L}|CHEM1{[O=C1CC([*:1])C(=O)N1CCCCCCN1C(=O)CC([*:2])C1=O]}$PEPTIDE1,CHEM1,7:R3-1:R1|PEPTIDE2,CHEM1,2:R3-1:R2$$$V2.0; N-terminus and C-terminus assumed), the “pA2 rat uterus (BK2)” value at BK2 -receptor (against BK) is 7.6 ± 0.1. Also, the “observed antagonist activity BK2, 1” value at BK2 receptor [4] (1 μg kg^-1 min^-1) is listed as “+”. For the same molecule, the “observed antagonist activity BK2, 3” value at BK2 receptor [4] (3 μg kg^-1 min^-1) is listed as “+”. Moreover, the “observed antagonist activity BK2, 10” value at BK2 receptor [4] (10 μg kg^-1 min^-1) is on record as “+”. Besides, the “BK1 rabbit aorta IC50” value at BK1 receptor [5] is 7.1 ± 0.2. Moreover, on BK1 receptor [6] (1 μg kg^-1 min^-1), the “observed antagonist activity BK1, 1” value is “+”. Moreover, the “observed antagonist activity BK1, 3” value at BK1 receptor [6] (3 μg kg^-1 min^-1) is listed as “+”. In addition, the “observed antagonist activity BK1, 10” value at BK1 receptor [6] (10 μg kg^-1 min^-1) is on record as “+”.

As to `CC(C)C[C@H](NC(=O)[C@@H](Cc1ccccc1)NC(=O)[C@H](CO)NC(=O)[C@H](Cc1ccccc1)NC(=O)CNC(=O)[C@@H]1C[C@@H](O)CN1C(=O)[C@@H]1CCCN1C(=O)[C@H](CCCNC(=N)N)NC(=O)[C@H](N)CSC1CC(=O)N(CCCCCCN2C(=O)CC(SC[C@@H](N)C(=O)N[C@@H](CCCNC(=N)N)C(=O)N3CCC[C@H]3C(=O)N3C[C@H](O)C[C@H]3C(=O)NCC(=O)N[C@@H](Cc3ccccc3)C(=O)N[C@@H](CO)C(=O)N[C@H](Cc3ccccc3)C(=O)N[C@@H](CC(C)C)C(=O)N[C@@H](CCCNC(=N)N)C(=O)O)C2=O)C1=O)C(=O)N[C@@H](CCCNC(=N)N)C(=O)O` (stereo partly drawn) [CP-0161] (HELM PEPTIDE1{[dC].R.P.[Hyp].G.F.S.[dF].L.R}|PEPTIDE2{[dC].R.P.[Hyp].G.F.S.[dF].L.R}|CHEM1{[O=C1CC([*:1])C(=O)N1CCCCCCN1C(=O)CC([*:2])C1=O]}$PEPTIDE1,CHEM1,1:R3-1:R1|PEPTIDE2,CHEM1,1:R3-1:R2$$$V2.0), the Kb at BK2 receptor [2] (against BK, read-out: pA2 guinea pig ileum (converted)) was 316 nM. Moreover, the “% REC rat uterus” value on BK2 -receptor stood at 100%.
